From patent US10961309B2, “Reducing systemic regulatory T cell levels or activity for treatment of disease and injury of the CNS” (Yeda Research and Development Co. Ltd, priority 2014, dated 2021)
Entries after “also recorded” stand apart in the source; their conditions may differ.

Assays:
[1] = tested on: splenocytes (CD4+Foxp3+ Tregs, CD4+ IFN-γ+ T cells); assay: Flow cytometry of splenocytes; assay type: in vivo, mouse
Method: (§1) Mice were transcardially perfused with PBS, and tissues were treated as previously described (Baruch et al, 2013). Brains were dissected and the different brain regions were removed under a dissecting microscope (Stemi DV4; Zeiss) in PBS, and tissues were dissociated using the gentleMACS™ dissociator (Miltenyi Biotec). Choroid plexus tissues were isolated from the lateral, third and fourth ventricles of the brain, incubated at 37° C. for 45 min in PBS (with Ca^2+/Mg^2+) containing 400 U/ml collagenase type IV (Worthington Biochemical Corporation), and then manually homogenized by pipetting. Spleens were mashed with the plunger of a syringe and treated with ACK (ammonium chloride potassium) lysing buffer to remove erythrocytes. In all cases, samples were stained according to the manufacturers' protocols. All samples were filtered through a 70 μm nylon mesh, and blocked with anti-Fc CD16/32 (1:100; BD Biosciences). For intracellular staining of IFN-γ, the cells were incubated with […] (10 ng/ml; Sigma-Aldrich) and ionomycin (250 ng/ml; Sigma-Aldrich) for 6 h, and Brefeldin-A (10 μg/ml; Sigma-Aldrich) was added for the last 4 h. Intracellular labeling of cytokines was done with BD Cytofix/Cytoperm™ Plus fixation/permeabilization kit (cat. no. 555028). For Treg staining, an eBioscience FoxP3 staining buffer set (cat. no. 00-5523-00) was used. The following fluorochrome-labeled monoclonal antibodies were purchased from BD Pharmingen, BioLegend, R&D Systems, or eBiosciences, and used according to the manufacturers' protocols: PE or Alexa Fluor 450-conjugated anti-CD4; PE-conjugated anti-CD25; PerCP-Cy5.5-conjugated anti-CD45; FITC-conjugated anti-TCRβ; APC-conjugated anti-IFN-γ; APC-conjugated anti-FoxP3; Brilliant-violet-conjugated anti-CD45. Cells were analyzed on an LSRII cytometer (BD Biosciences) using FlowJo software. In each experiment, relevant negative control groups, positive controls, and single stained samples for each tissue were used to identify the populations of interest and to exclude other populations.

[2] = tested on: soluble Aβ1-40 and Aβ1-42; assay: Soluble Aβ (sAβ) protein quantification by ELISA; assay type: in vivo, mouse; conditions: 3 weeks after 1 week ATRA treatment, AD-Tg mice
Method: Tissue homogenization and sAβ protein extraction was performed as previously described (Schmidt et al, 2005). Briefly, cerebral brain parenchyma was dissected and snap-frozen and kept at −80° C. until homogenization. Proteins were sequentially extracted from samples to obtain separate fractions containing proteins of differing solubility. Samples were homogenized in 10 volumes of ice-cold tissue homogenization buffer, containing 250 mM of sucrose, 20 mM of Tris base, 1 mM of ethylenediaminetetraacetic acid (EDTA), and 1 mM of ethylene glycol tetraacetic acid (pH 7.4), using a ground glass pestle in a Dounce homogenizer. After six strokes, the homogenate was mixed 1:1 with 0.4% diethylamine (DEA) in a 100-mM NaCl solution before an additional six strokes, and then centrifuged at 135,000 g at 4° C. for 45 min. The supernatant (DEA-soluble fraction containing extracellular and cytosolic proteins) was collected and neutralized with 10% of 0.5M of Tris-HCl (pH 6.8). Aβ1-40 and Aβ1-42 were individually measured by enzyme-linked immunosorbent assay (ELISA) from the soluble fraction using commercially available kits (Biolegend; #SIG-38954 and #SIG-38956, respectively) according to the manufacturer instructions.

Foxp3+ Tregs = assay: Conditional ablation of Treg by DTx, confirmed by flow cytometry; assay type: in vivo, mouse
Method: as §1, with “For Treg staining, an eBioscience FoxP3 staining buffer set (cat. no. 00-5523-00) was used. The following fluorochrome-labeled monoclonal antibodies were purchased from BD Pharmingen, BioLegend, R&D Systems, or eBiosciences, and used according to the manufacturers' protocols: PE or Alexa Fluor 450-conjugated anti-CD4; PE-conjugated anti-CD25; PerCP-Cy5.5-conjugated anti-CD45; FITC-conjugated anti-TCRβ; APC-conjugated anti-IFN-γ; APC-conjugated anti-FoxP3; Brilliant-violet-conjugated anti-CD45.” left out, “In each experiment, relevant negative control groups, positive controls, and single stained samples for each tissue were used to identify the populations of interest and to exclude other populations.” left out

[3] = tested on: IFN-γ-expressing immune cells in the CP; assay: Flow cytometry of CP IFN-γ-expressing immune cells; assay type: in vivo, mouse; conditions: weekly-GA, 5XFAD AD-Tg mice, end of 1st week of regimen
Method: as §1, with “For Treg staining, an eBioscience FoxP3 staining buffer set (cat. no. 00-5523-00) was used. The following fluorochrome-labeled monoclonal antibodies were purchased from BD Pharmingen, BioLegend, R&D Systems, or eBiosciences, and used according to the manufacturers' protocols: PE or Alexa Fluor 450-conjugated anti-CD4; PE-conjugated anti-CD25; PerCP-Cy5.5-conjugated anti-CD45; FITC-conjugated anti-TCRβ; APC-conjugated anti-IFN-γ; APC-conjugated anti-FoxP3; Brilliant-violet-conjugated anti-CD45.” left out, “In each experiment, relevant negative control groups, positive controls, and single stained samples for each tissue were used to identify the populations of interest and to exclude other populations.” left out

[4] = tested on: APP/PS1 mouse model of AD; conditions: weekly administration regimen (Butovsky et al, 2006); cited from earlier work

## CC1=C(/C=C/C(C)=C/C=C/C(C)=C/C(=O)O)C(C)(C)CCC1 [ATRA, All-trans retinoic acid]
[1]; ATRA 8 mg/kg/d i.p. every other day 1 week vs vehicle (DMSO), 5-month 5XFAD AD-Tg mice
  splenocyte frequencies of Foxp3+CD25+ Tregs: significantly higher; also recorded: elevation
[2]
  cerebral sAβ1-40 and sAβ1-42 levels: increased

## Diphtheria toxin [DTx]
Foxp3+ Tregs; blood and spleen, Foxp3.LuciDTR mice, DTx 8 ng/g i.p. daily 4 consecutive days
  depletion of the GFP-expressing FoxP3+ CD4+ Treg cells: > 99%
Foxp3+ Tregs; splenocytes from AD-Tg/Foxp3-DTR+/− mice, 1 day after last injection, DTx i.p. 4 days
  depletion of Foxp3+ cells: ~99%

## Glatiramer acetate [GA]
[1]; weekly-GA, 5XFAD AD-Tg mice, end of 1st week of regimen
  splenocyte Foxp3+ Treg levels: reduced
[3]
  IFN-γ-producing cells at the CP: increase
[4]
  effect in the APP/PS1 mouse model of AD: therapeutic effect
